Source: patent US10925856B2, “Methods and compositions involving bucindolol for the treatment of atrial fibrillation” (priority 2018, dated 2021)
Like-named read-outs stand apart in the source and are kept apart here.

Tests used:
[1] = in vivo; cited from earlier work
[2] = CYP2D6 Extensive/Ultra Metabolizer
[3] = Drug Titration Period (first 42 days)
[4] = treatment-emergent AE, total follow-up

## COCCc1ccc(OCC(O)CNC(C)C)cc1 (stereo not shown) [metoprolol, metoprolol succinate, reference compound]
[1]
  Bioavailability: approximately 50%
[2]
  HEADACHE, % of patients: (4.5%)
  HEADACHE, number of patients: 5
  HYPOTENSION, % of patients: (8.1%)
  HYPOTENSION, number of patients: 9
  IMMUNE SYSTEM DISORDERS, % of patients: (0.9%)
  IMMUNE SYSTEM DISORDERS, number of patients: 1
  INFECTIONS AND INFESTATIONS, % of patients: (20.7%)
  INFECTIONS AND INFESTATIONS, number of patients: 23
  INFLUENZA, % of patients: (2.7%)
  INFLUENZA, number of patients: 3
CYP2D6 Poor Metabolizer
  HEADACHE, % of patients: (0.0%)
  HEADACHE, number of patients: 0
  INFECTIONS AND INFESTATIONS, % of patients: (12.5%)
  INFECTIONS AND INFESTATIONS, number of patients: 1
  INFLUENZA, % of patients: (0.0%)
  INFLUENZA, number of patients: 0
  UPPER RESPIRATORY TRACT INFECTION, % of patients: (0.0%)
  UPPER RESPIRATORY TRACT INFECTION, number of patients: 0
[3]
  AC mortality or CV hosp or treatment disc. due to AE, patients N (%): 6 (5%)
  All-cause mortality, patients N (%): 1 (1%)
GENETIC-AF, all randomized patients
  AEs leading to study withdrawal (excluding death): 1.5%
Total Study On-Drug Period
  Adverse event leading to death, patients N (%): 2.3%
  Adverse events leading to study withdrawal (excluding death), patients N (%): 2 (1.5%)
Total Study On-Drug Period, listed as Metoprolol
  Adverse event leading to death, patients N (%): 3 (2.3%)
human, in vivo
  AE SOC frequency: Cardiac Disorders: 26.3%
  AE SOC frequency: Eye Disorders: 3.0%
  AE SOC frequency: Gastrointestinal Disorders: 18.0%
  AE SOC frequency: Hepatobiliary Disorders: 2.3%
  AE SOC frequency: Infections and Infestations: 21.8%
  AE SOC frequency: Investigators: 7.5%
  AE SOC frequency: Metabolism and Nutrition Disorders: 12.0%
  AE SOC frequency: Musculoskeletal and Connective Tissue Disorders: 15.0%
  AE SOC frequency: Neoplasms Benign Malignant and Unspecified: 6.8%
  AE SOC frequency: Renal and Urinary Disorders: 9.8%
  AE SOC frequency: Respiratory, Thoracic and Mediastinal Disorders: 10.5%
  AE frequency: arthralgia: 3.8%
  AE frequency: cardiac failure: 3.8%
  AE frequency: chronic kidney disease: 0.8%
  AE frequency: constipation: 1.5%
  AE frequency: epistaxis: 0.0%
  AE frequency: hematuria: 0.0%
  AE frequency: hypomagnesaemia: 0.0%
  AE frequency: hypotension: 7.5%
  AE frequency: pneumonia: 0.8%
  AE frequency: upper respiratory tract infection: 4.5%
  AEs leading to permanent study drug discontinuation: 8.3%
  AEs: Bradycardia: 12.0%
  AEs: Stroke (99% on OACs): 0.0%
  Adverse event possible/probably related to study drug, patients N (%): 40 (30.1%)
  Adverse events leading to permanent study drug discontinuation, patients N (%): 11 (8.3%)
  Adverse events related to neoplasm, patients N (%): 9 (6.8%)
  Any bradycardia event, % of patients: (12%)
  Any bradycardia event, number of patients: 16
  Any bradycardia, % of patients: (12%)
  Any bradycardia, number of patients: 16
  Any serious adverse event, % of patients: (20%)
  Any serious adverse event, number of patients: 26
  Asymptomatic bradycardia event, % of patients: (8%)
  Asymptomatic bradycardia event, number of patients: 10
  Asymptomatic bradycardia, % of patients: (8%)
  Asymptomatic bradycardia, number of patients: 10
  Bradycardia AEs: 3 (38%)
  Bradycardia event leading to study drug discontinuation, % of patients: (1%)
  Bradycardia event leading to study drug discontinuation, number of patients: 1
  Bradycardia event leading to study drug dose interruption, % of patients: (2%)
  Bradycardia event leading to study drug dose interruption, number of patients: 2
  Bradycardia event leading to study drug dose reduction, % of patients: (8%)
  Bradycardia event leading to study drug dose reduction, number of patients: 11
  CAD, % of patients: (1%)
  CAD, number of patients: 1
  Cardiac AE rate (heart failure or bradycardia events): 50%
  Cardiovascular serious adverse event, % of patients: (10%)
  Cardiovascular serious adverse event, number of patients: 13
  Catheterization, % of patients: (1%)
  Catheterization, number of patients: 1
  EPISTAXIS, % of patients: (0.0%)
  EPISTAXIS, number of patients: 0
  HAEMATURIA, % of patients: (0.0%)
  HAEMATURIA, number of patients: 0
  HYPOMAGNESAEMIA, % of patients: (0.0%)
  HYPOMAGNESAEMIA, number of patients: 0
  Heart block (Mobitz I/II, 2:1, or 3rd degree), % of patients: (0%)
  Heart block (Mobitz I/II, 2:1, or 3rd degree), number of patients: 0
  ICD Implantation, % of patients: (5%)
  ICD Implantation, number of patients: 7
  Incidence of Cr > 3.0, % of patients: (1%)
  Incidence of Cr > 3.0, number of patients: 1
  Incidence of bilirubin > 2.0, % of patients: (2%)
  Incidence of bilirubin > 2.0, number of patients: 2
  Non-CNS Embolism, % of patients: (0%)
  Non-CNS Embolism, number of patients: 0
  Pacemaker Implantation, % of patients: (2%)
  Pacemaker Implantation, number of patients: 3
  SAE SOC frequency: Infections and Infestations: 3.0%
  SAE SOC frequency: Renal and Urinary Disorders: 1.5%
  SAE SOC frequency: Respiratory, Thoracic and Mediastinal Disorders: 1.5%
  SAE frequency: Cardiac Failure: 2.3%
  SAE frequency: Cardiac Failure Congestive: 5.3%
  SAEs: Any cardiovascular event: 9.8%
  Stroke, % of patients: (0%)
  Stroke, number of patients: 0
  Symptomatic bradycardia event, % of patients: (5%)
  Symptomatic bradycardia event, number of patients: 7
  Symptomatic bradycardia, % of patients: (5%)
  Symptomatic bradycardia, number of patients: 7
  TIA, % of patients: (1%)
  TIA, number of patients: 1
  UPPER RESPIRATORY TRACT INFECTION, % of patients: (4.5%)
  UPPER RESPIRATORY TRACT INFECTION, number of patients: 5
human, in vivo, 42 days
  All-cause hospitalization, patients N (%): 9 (7%)
  Any serious adverse event, patients N (%): 10 (8%)
  Asymptomatic bradycardia, patients N (%): 4 (3%)
  Cardiovascular hospitalization, patients N (%): 4 (3%)
  Heart failure hospitalization, patients N (%): 4 (3%)
  Symptomatic bradycardia, patients N (%): 3 (2%)
  Treatment-related cardiovascular serious adverse event, patients N (%): 0 (0%)
  Treatment-related serious adverse event, patients N (%): 0 (0%)
In vivo
  Ablation, % of patients: (14%)
  Ablation, number of patients: 18
  Additional ECV After Successful SR, % of patients: (23%)
  Additional ECV After Successful SR, number of patients: 30
  Anti-Arrhythmic Therapy, % of patients: (33%)
  Anti-Arrhythmic Therapy, number of patients: 44
  Appropriate Firing of on ICD, % of patients: (1%)
  Appropriate Firing of on ICD, number of patients: 1
  Rate Control Therapy, % of patients: (11%)
  Rate Control Therapy, number of patients: 15
  TIA, patients: One
[4]
  HEADACHE, % of patients: (3.8%)
  HEADACHE, number of patients: 5
  INFECTIONS AND INFESTATIONS, % of patients: (21.8%)
  INFECTIONS AND INFESTATIONS, number of patients: 29
  INFLUENZA, % of patients: (2.3%)
  INFLUENZA, number of patients: 3
  UPPER RESPIRATORY TRACT INFECTION, % of patients: (4.5%)
  UPPER RESPIRATORY TRACT INFECTION, number of patients: 6
treatment-emergent serious AE
  INFECTIONS AND INFESTATIONS, % of patients: (3.0%)
  INFECTIONS AND INFESTATIONS, number of patients: 4
